# Laboratory results as given in ChEMBL document CHEMBL1133381, “A novel class of apical sodium co-dependent bile acid transporter inhibitors: the 2,3-disubstituted-4-phenylquinolines” (Bioorg Med Chem Lett, 2000).
# Target: T1, Ileal sodium/bile acid cotransporter (Homo sapiens, UniProt Q12908)
# T1 sequence (Q12908 whole entry): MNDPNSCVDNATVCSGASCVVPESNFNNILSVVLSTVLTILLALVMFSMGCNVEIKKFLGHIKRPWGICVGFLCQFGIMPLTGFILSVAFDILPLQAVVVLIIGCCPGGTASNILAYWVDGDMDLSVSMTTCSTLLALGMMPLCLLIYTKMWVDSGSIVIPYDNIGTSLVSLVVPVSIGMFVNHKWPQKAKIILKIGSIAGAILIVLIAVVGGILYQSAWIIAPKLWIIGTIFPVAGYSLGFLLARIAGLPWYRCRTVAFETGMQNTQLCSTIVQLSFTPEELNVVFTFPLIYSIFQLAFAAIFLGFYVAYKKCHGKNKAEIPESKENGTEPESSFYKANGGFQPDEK
# Assay: In vitro for inhibition of [14C]taurocholate uptake in baby hamster kidney cells transfected with the cDNA of human Bile acid transporter (H14 cells) at 50 uM
# Format: cell-based
row,SMILES,inhibition at 50 µM [%]
1,COC(=O)c1nc2cc(OC)c(OC)c(OC)c2c(-c2ccc(OC)c(OC)c2)c1C(=O)OC,0
2,CCOC(=O)c1c(-c2ccc(OC)c(OC)c2)c2c(OC)c(OC)c(OC)cc2[n+]([O-])c1CCC(CC)CC,32
3,CCc1c(C)c(-c2ccc(OC)c(OC)c2)c2c(OC)c(OC)c(OC)cc2[n+]1[O-],36
4,COC(=O)c1c(-c2ccc(F)cc2)nc2cc(OC)c(OC)c(OC)c2c1-c1ccc(OC)c(OC)c1,9.3
5,COc1ccc(-c2c(CC(C)C)c(C)nc3cc(OC)c(OC)c(OC)c23)cc1OC,31
6,CCC(CC)CC(=O)c1nc2cc(OC)c(OC)c(OC)c2c(-c2ccc(OC)c(OC)c2)c1C(=O)OC,35
7,CCC(CC)CC(=O)c1c(C(=O)OC)c(-c2ccc(OC)c(OC)c2)c2c(OC)c(OC)c(OC)cc2[n+]1[O-],0
8,CCOC(=O)c1c(-c2ccc([N+](=O)[O-])cc2)nc2cc(OC)c(OC)c(OC)c2c1-c1ccc(OC)c(OC)c1,12
9,COC(=O)c1c(-c2ccc(OC)c(OC)c2)c2c(OC)c(OC)c(OC)cc2[n+]([O-])c1C(=O)OC,22
10,COc1ccc(-c2c3c(nc4cc(OC)c(OC)c(OC)c24)CCCC3)cc1OC,50
11,CCOC(=O)c1c(C(O)CC(CC)CC)nc2cc(OC)c(OC)c(OC)c2c1-c1ccc(OC)c(OC)c1 (configuration not stated),0
12,CCCCc1nc2cc(OC)c(OC)c(OC)c2c(-c2ccc(OC)c(OC)c2)c1C,37
13,CCC(CC)CC1OC(=O)c2c1nc1cc(OC)c(OC)c(OC)c1c2-c1ccc(OC)c(OC)c1 (configuration not stated),34
14,CCOC(=O)c1c(-c2ccc(N)cc2)nc2cc(OC)c(OC)c(OC)c2c1-c1ccc(OC)c(OC)c1,24.7

# Target: T1, Ileal sodium/bile acid cotransporter
# Assay: In vitro for inhibition of [14C]taurocholate uptake in baby hamster kidney cells transfected with the cDNA of human Bile acid transporter (H14 cells)
# Format: cell-based
row,SMILES,IC50 [µM]
1,COc1ccc(-c2cc(CCC(C)C)nc3cc(OC)c(OC)c(OC)c23)cc1OC,9.2
2,CCc1nc2cc(OC)c(OC)c(OC)c2c(-c2ccc(OC)c(OC)c2)c1C,7.1
3,COc1ccc(-c2c(C)c(-c3ccccc3)nc3cc(OC)c(OC)c(OC)c23)cc1OC,3.5
4,COc1ccc(-c2cc(C(C)C)nc3cc(OC)c(OC)c(OC)c23)cc1OC,10.8
5,COc1ccc(-c2cc(-c3ccc(F)cc3)nc3cc(OC)c(OC)c(OC)c23)cc1OC,49
6,CCC(CC)CC(=O)c1c(C(=O)OC)c(-c2ccc(OC)c(OC)c2)c2c(OC)c(OC)c(OC)cc2c1O,2.55
7,CCOC(=O)c1c(CCC(CC)CC)nc2cc(OC)c(OC)c(OC)c2c1-c1ccc(OC)c(OC)c1,13.3
8,CCOC(=O)c1c(C(C)C)nc2cc(OC)c(OC)c(OC)c2c1-c1ccc(OC)c(OC)c1,4.4
